{"source": "patent US10770169B2", "about": "“Method of providing a treatment to a subject based on a dynamic pathway map” (THE REGENTS OF THE UNIVERSITY OF CALIFORNIA, priority 2010, dated 2020)", "system": "panel of 55 breast cancer cell lines", "experiment": "Cell growth inhibition assay (Cell Titer Glo, 72 h, 9 doses; GI50, TGI, LC50)", "type": "cell-based, human", "details": "Homo sapiens, read-out: GI50 (converted)", "note": "Where two headings read alike, the source gives them in different places."}
{"molecule": "NS(=O)(=O)OC[C@@H]1C[C@@H](n2ccc3c(N[C@H]4CCc5ccccc54)ncnc32)C[C@@H]1O", "note": "[MLN4924]", "values": [{"measurement": "GI50", "setting": "AU565, cell line AU565, censored GI50 values", "value": 182, "unit": "nM"}, {"measurement": "GI50", "setting": "AU565, cell line AU565", "value": 182, "unit": "nM"}, {"measurement": "GI50", "setting": "BT-20, cell line BT20, censored GI50 values", "value": 2750, "unit": "nM"}, {"measurement": "GI50", "setting": "BT-20, cell line BT20", "value": 2750, "unit": "nM"}, {"measurement": "GI50", "setting": "BT-474, cell line BT474, censored GI50 values", "value": 575, "unit": "nM"}, {"measurement": "GI50", "setting": "BT-474, cell line BT474", "value": 575, "unit": "nM"}, {"measurement": "GI50", "setting": "BT-483, cell line BT483, censored GI50 values", "value": 33100, "unit": "nM"}, {"measurement": "GI50", "setting": "BT-483, cell line BT483", "value": 33100, "unit": "nM"}, {"measurement": "GI50", "setting": "CAMA-1, cell line CAMA1, censored GI50 values", "value": 51.3, "unit": "nM"}, {"measurement": "GI50", "setting": "CAMA-1, cell line CAMA1", "value": 51.3, "unit": "nM"}, {"measurement": "GI50", "setting": "HCC38, cell line HCC38, censored GI50 values", "value": 27.5, "unit": "nM"}, {"measurement": "GI50", "setting": "HCC38, cell line HCC38", "value": 27.5, "unit": "nM"}, {"measurement": "GI50", "setting": "HCC70, cell line HCC70, censored GI50 values", "value": 33100, "unit": "nM"}, {"measurement": "GI50", "setting": "HCC70, cell line HCC70", "value": 33100, "unit": "nM"}, {"measurement": "GI50", "setting": "HCC1143, cell line HCC1143, censored GI50 values", "value": 245, "unit": "nM"}, {"measurement": "GI50", "setting": "HCC1143, cell line HCC1143", "value": 245, "unit": "nM"}, {"measurement": "GI50", "setting": "HCC1187, cell line HCC1187, censored GI50 values", "value": 501, "unit": "nM"}, {"measurement": "GI50", "setting": "HCC1187, cell line HCC1187", "value": 501, "unit": "nM"}, {"measurement": "GI50", "setting": "HCC1419, cell line HCC1419, censored GI50 values", "value": 22.9, "unit": "nM"}, {"measurement": "GI50", "setting": "HCC1419, cell line HCC1419", "value": 22.9, "unit": "nM"}, {"measurement": "GI50", "setting": "HCC1428, cell line HCC1428, censored GI50 values", "value": 117, "unit": "nM"}, {"measurement": "GI50", "setting": "HCC1428, cell line HCC1428", "value": 117, "unit": "nM"}, {"measurement": "GI50", "setting": "HCC1500, cell line HCC1500, censored GI50 values", "value": 11.7, "unit": "nM"}, {"measurement": "GI50", "setting": "HCC1500, cell line HCC1500", "value": 11.7, "unit": "nM"}, {"measurement": "GI50", "setting": "HCC1806, cell line HCC1806, censored GI50 values", "value": 21.4, "unit": "nM"}, {"measurement": "GI50", "setting": "HCC1806, cell line HCC1806", "value": 21.4, "unit": "nM"}, {"measurement": "GI50", "setting": "HCC1937, cell line HCC1937, censored GI50 values", "value": 2630, "unit": "nM"}, {"measurement": "GI50", "setting": "HCC1937, cell line HCC1937", "value": 2630, "unit": "nM"}, {"measurement": "GI50", "setting": "HCC1954, cell line HCC1954, censored GI50 values", "value": 4470, "unit": "nM"}, {"measurement": "GI50", "setting": "HCC1954, cell line HCC1954", "value": 4470, "unit": "nM"}, {"measurement": "GI50", "setting": "MDA-MB-134-VI, cell line MDAMB134VI, censored GI50 values", "value": 52.5, "unit": "nM"}, {"measurement": "GI50", "setting": "MDA-MB-175-VII, cell line MDAMB175VII, censored GI50 values", "value": 427, "unit": "nM"}, {"measurement": "GI50", "setting": "MDA-MB-415, cell line MDAMB415, censored GI50 values", "value": 74.1, "unit": "nM"}, {"measurement": "GI50", "setting": "MDA-MB-415, cell line MDAMB415", "value": 74.1, "unit": "nM"}, {"measurement": "GI50", "setting": "MDA-MB-436, cell line MDAMB436, censored GI50 values", "value": 269, "unit": "nM"}, {"measurement": "GI50", "setting": "MDA-MB-436, cell line MDAMB436", "value": 269, "unit": "nM"}, {"measurement": "GI50", "setting": "MDA-MB-453, cell line MDAMB453, censored GI50 values", "value": 2190, "unit": "nM"}, {"measurement": "GI50", "setting": "MDA-MB-453, cell line MDAMB453", "value": 2190, "unit": "nM"}, {"measurement": "GI50", "setting": "MDA-MB-468, cell line MDAMB468, censored GI50 values", "value": 204, "unit": "nM"}, {"measurement": "GI50", "setting": "MDA-MB-468, cell line MDAMB468", "value": 204, "unit": "nM"}, {"measurement": "GI50", "setting": "SK-BR-3, cell line SKBR3, censored GI50 values", "value": 151, "unit": "nM"}, {"measurement": "GI50", "setting": "SK-BR-3, cell line SKBR3", "value": 151, "unit": "nM"}, {"measurement": "GI50", "setting": "SUM52PE, cell line SUM52PE, censored GI50 values", "value": 398, "unit": "nM"}, {"measurement": "GI50", "setting": "SUM52PE, cell line SUM52PE", "value": 398, "unit": "nM"}, {"measurement": "GI50", "setting": "SUM149PT, cell line SUM149PT, censored GI50 values", "value": 191, "unit": "nM"}, {"measurement": "GI50", "setting": "SUM149PT, cell line SUM149PT", "value": 191, "unit": "nM"}, {"measurement": "GI50", "setting": "SUM1315MO2, cell line SUM1315MO2, censored GI50 values", "value": 33100, "unit": "nM"}, {"measurement": "GI50", "setting": "SUM-159-PT, cell line SUM159PT, censored GI50 values", "value": 589, "unit": "nM"}, {"measurement": "GI50", "setting": "SUM-159-PT, cell line SUM159PT", "value": 589, "unit": "nM"}, {"measurement": "GI50", "setting": "T47D, cell line T47D, censored GI50 values", "value": 117, "unit": "nM"}, {"measurement": "GI50", "setting": "T47D, cell line T47D", "value": 117, "unit": "nM"}, {"measurement": "GI50", "setting": "UACC-812, cell line UACC812, censored GI50 values", "value": 1000, "unit": "nM"}, {"measurement": "GI50", "setting": "UACC-812, cell line UACC812", "value": 1000, "unit": "nM"}, {"measurement": "GI50", "setting": "ZR-75-1, cell line ZR751, censored GI50 values", "value": 33900, "unit": "nM"}, {"measurement": "GI50", "setting": "ZR-75-1, cell line ZR751", "value": 33900, "unit": "nM"}, {"measurement": "GI50", "setting": "ZR-75B, cell line ZR75B, censored GI50 values", "value": 145, "unit": "nM"}, {"measurement": "GI50", "setting": "ZR-75B, cell line ZR75B", "value": 145, "unit": "nM"}, {"measurement": "GI50", "setting": "cell line 600MPE, censored GI50 values", "value": 372, "unit": "nM"}, {"measurement": "GI50", "setting": "cell line 600MPE", "value": 372, "unit": "nM"}, {"measurement": "GI50", "setting": "cell line HCC2185, censored GI50 values", "value": 372, "unit": "nM"}, {"measurement": "GI50", "setting": "cell line HCC2185", "value": 372, "unit": "nM"}, {"measurement": "GI50", "setting": "cell line HCC3153, censored GI50 values", "value": 229, "unit": "nM"}, {"measurement": "GI50", "setting": "cell line HCC3153", "value": 229, "unit": "nM"}, {"measurement": "GI50", "setting": "cell line LY2, censored GI50 values", "value": 158, "unit": "nM"}, {"measurement": "GI50", "setting": "cell line LY2", "value": 158, "unit": "nM"}, {"measurement": "GI50", "setting": "cell line MDAMB134V", "value": 52.5, "unit": "nM"}, {"measurement": "GI50", "setting": "cell line MDAMB175V", "value": 427, "unit": "nM"}, {"measurement": "GI50", "setting": "cell line SUM1315MO", "value": 33100, "unit": "nM"}]}
